This is an account of results in patent US20150005264A1, “PREDICTIVE BIOMARKER FOR HYPOXIA-ACTIVATED PRODRUG THERAPY” (THRESHOLD PHARMACEUTICALS, INC., priority 2012, published 2015).

The test system of this assay is melanoma. The assay is described as follows: Clinical trial of TH-302 monotherapy in melanoma patients, response compared with serum CA-IX level. It is filed as in vivo, human. The conditions noted are these: thirty melanoma patients, pre-dose serum CA-IX (ELISA) cut-offs 28.8, 77.1, 178.3 pg/mL, FIG. 1. The protocol:
In one important embodiment, the HAP is TH-302. In a clinical trial of TH-302 in melanoma patients, CA-IX levels were measured in serum samples taken from patients prior to TH-302 administration. Measured levels varied widely, with the first quartile having levels of 28.8 pg/mL CA-IX or less, the median being 77.1 pg/mL CA-IX, and the 3rd quartile having 178.3 pg/mL or less.
The data set used to generate the graphs in FIG. 1 was used to generate the graph in FIG. 2, which uses the 2×Median value of 154.2 pg/mL as the cut-off for dividing patients into high and low CA-IX level groups. Using this value as the cut-off, one sees an even more dramatic example of the predictive value of CA-IX levels in determining whether a patient will respond to TH-302 or other HAP therapy.
(ELISA stands for enzyme-linked immunosorbent assay.)

In the case of `Cn1c(COP(=O)(NCCBr)NCCBr)cnc1[N+](=O)[O-]` [TH-302, (2-bromoethyl)({[(2-bromoethyl)amino][(2-nitro-3-methylimidazol-4-yl)methoxy]phosphoryl})amine], the “progression-free survival (response to TH-302) versus serum CA-IX level” value is on record as “higher CA-IX levels correlated to a better response to TH-302”.
